Results published in US12624017B2, “Salt form of isoquinolinone type compound as rock inhibitor and preparation method therefor” (GUANGZHOU OCUSUN OPHTHALMIC BIOTECHNOLOGY CO., LTD., priority 2020, dated 2026).

What was measured:
Format in all cases: in vivo, New Zealand white rabbits
[1] = tested on: New Zealand rabbits with normal intraocular pressure; test: Eye irritation response detection with hand-held slit lamp, 14 days eye drops; conditions: 4 mg/mL; 14 consecutive days; 50 μl/eye/day
Protocol: (§1) 42 male New Zealand white rabbits were randomly grouped into 7 groups according to body weights, 6 rabbits/group. Among the animals in Groups 1-7, the left eye was administrated dropwise with normal saline, and the right eye was administrated dropwise with a solvent/control/test article in an administration volume of 50 μL/eye respectively, once a day for 14 consecutive days, and the day of first administration was recorded as Day 1. The intraocular pressures of the animals were measured before administration on Day 1, as well as at 1 h, 2 h, 4 h, 6 h, 8 h and 10 h after administration on Day 1 (Table 10).
Animals were subjected to eye irritation response detection and fluorescein sodium detection (scored according to scoring criteria) in both eyes with a hand-held slit lamp before the start of test (Day −2/Day −1), before daily administration (Day 1 to Day 14), and at 1 h, 2 h, 4 h, 24 h, 48 h, and 72 h after the last administration (Day 14).
Animals were subjected to eye irritation response detection in both eyes with a handheld slit lamp on Day −2 to Day −1 before the start of test, before first administration every day (Day 1 to Day 14), and at 1 h, 2 h, 4 h, 24 h, 48 h, and 72 h after the last administration. The scoring criteria were as follows: […]

[2] = tested on: New Zealand rabbits with normal intraocular pressure; test: Intraocular pressure reduction, normal intraocular pressure, Day 1 (Operation II); conditions: 4 mg/mL in right eye, Day 1; for Change in intraocular pressure: vs negative controls
Text: An intraocular pressure reduction effect and potential ocular toxicity of the compound of formula (I) were inspected with rabbits with normal intraocular pressure by repeated administration of eye drops for 14 days.
Male New Zealand white rabbits, aged 97 to 127 days, weighted 2.6-3.5 kg, purchased from Pizhou Oriental Breeding Co., Ltd.
as §1

[3] = tested on: New Zealand rabbits suffered with acute intraocular hypertension; test: Intraocular pressure reduction test in acute intraocular hypertension model; conditions: for Intraocular pressure in left eye: 4 mg/mL group, left eye (solvent only); for Intraocular pressure in right eye: 4 mg/mL, 50 μL, right eye (modelled, dosed)
Text: Acute intraocular hypertension was induced for rabbits by injection of a viscoelastic agent into the anterior chamber, and the effects of ocular pressure reduction of the compound of formula (I) were inspected by administration of eye drops at different concentrations.
Male New Zealand white rabbits, aged 97 to 127 days, weighted 2.5 to 3.4 kg, purchased from Pizhou Oriental Breeding Co., Ltd.
50 male New Zealand white rabbits were randomly divided into 5 groups according to body weight, 10 rabbits/group. The anterior chambers of the right eyes of animals in Groups 1 to 5 were injected with medical sodium hyaluronate gel in a single dose, 100 μL/eye, to induce ocular hypertension in the animals. In 5 to 15 min after molding, the right eye was administrated dropwise with the solvent, K-115, and the test article (compounds of formula (I) of different concentrations), and the left eye was administrated dropwise with the solvent, 50 μL/eye; and the intraocular pressures of the animals in both eyes were measured before administration, as well as at 2, 4, 6, 8, and 10 h after administration, respectively.

SMILES: C[C@H]1CNCCCN1S(=O)(=O)c1cccc2cncc(F)c12 [K-115, reference compound]
- Eye irritation (conclusion) [1]: no irritation
- Average intraocular pressure in both eyes ([2]; 1 h after administration): 5.50 mmHg
- Change in intraocular pressure ([2]; 1 h after administration): −3.39 mmHg
- Average intraocular pressure in both eyes ([2]; 2 h after administration): 7.06 mmHg
- Change in intraocular pressure ([2]; 2 h after administration): −2.50 mmHg
- Average intraocular pressure in both eyes ([2]; 4 h after administration): 9.00 mmHg
- Change in intraocular pressure ([2]; 4 h after administration): −0.89 mmHg
- Average intraocular pressure in both eyes ([2]; 6 h after administration): 9.17 mmHg
- Change in intraocular pressure ([2]; 6 h after administration): −1.61 mmHg
- Average intraocular pressure in both eyes ([2]; 8 h after administration): 10.61 mmHg
- Change in intraocular pressure ([2]; 8 h after administration): 0.23 mmHg
- Average intraocular pressure in both eyes ([2]; 10 h after administration): 12.33 mmHg
- Change in intraocular pressure ([2]; 10 h after administration): 0.17 mmHg
- Average intraocular pressure in both eyes ([2]; before administration): 10.17 mmHg
- Change in intraocular pressure ([2]; before administration): 0.83 mmHg
- Intraocular pressure in left eye ([3]; 2 h after administration): 6.50 mmHg
- Intraocular pressure in left eye ([3]; 4 h after administration): 8.54 mmHg
- Intraocular pressure in left eye ([3]; 6 h after administration): 11.40 mmHg
- Intraocular pressure in left eye ([3]; 8 h after administration): 13.20 mmHg
- Intraocular pressure in left eye ([3]; 10 h after administration): 13.37 mmHg
- Intraocular pressure in left eye ([3]; before administration): 11.80 mmHg
- Intraocular pressure in right eye ([3]; 2 h after administration): 8.20 mmHg
- Intraocular pressure in right eye ([3]; 4 h after administration): 11.27 mmHg
- Intraocular pressure in right eye ([3]; 6 h after administration): 15.07 mmHg
- Intraocular pressure in right eye ([3]; 8 h after administration): 15.57 mmHg
- Intraocular pressure in right eye ([3]; 10 h after administration): 16.47 mmHg
- Intraocular pressure in right eye ([3]; before administration): 11.77 mmHg
